Assay results from paper PMC2248166, “Quantitative peptide binding motifs for 19 human and mouse MHC class I molecules derived using positional scanning combinatorial peptide libraries” (Immunome Research, 2008).
Where a SMILES comes first, the peptide text is derived from it.

Molecular target: HLA A*3201 (Homo sapiens, UniProt P04439, A270S/D101S/D185E/E176V/E277Q/F133L/G103R/G107R/G231S/H175R/I121M/I218V/I322F/K168Q/L105A/L300P/L318F/M331R/P208A/P217A/Q94H/R106L/R138Q/S129P/T104I/T323A/T345S/V100E/V321M/V358M)
Test: biochemical
Type: binding

Structure (SMILES) | IC50 [nM]
CC[C@H](C)[C@H](NC(=O)[C@H](CC(C)C)NC(=O)[C@H](Cc1c[nH]cn1)NC(=O)[C@@H](N)CCCNC(=N)N)C(=O)N[C@@H](Cc1ccccc1)C(=O)N[C@@H](CO)C(=O)N[C@@H](Cc1ccc(O)cc1)C(=O)N[C@@H](C)C(=O)N[C@@H](Cc1ccccc1)C(=O)O [3102.0393] (H-RHLIFSYAF-OH) | 14
CC[C@H](C)[C@H](NC(=O)[C@H](CO)NC(=O)[C@H](CS)NC(=O)[C@H](CCSC)NC(=O)[C@@H](N)C(C)C)C(=O)N[C@@H](CO)C(=O)N[C@@H](CC(C)C)C(=O)N[C@H](C(=O)N[C@@H](Cc1ccc(O)cc1)C(=O)O)[C@@H](C)O [3102.0394] (H-VMCSISLTY-OH) | 11
CC[C@H](C)[C@H](NC(=O)[C@@H]1CCCN1C(=O)[C@H](CC(C)C)NC(=O)[C@@H](NC(=O)[C@H](Cc1ccc(O)cc1)NC(=O)[C@H](Cc1ccccc1)NC(=O)[C@H](CCSC)NC(=O)[C@H](CC(C)C)NC(=O)[C@@H](N)Cc1c[nH]cn1)[C@@H](C)O)C(=O)O [3102.0397] (H-HLMFYTLPI-OH) | 0.18
CC[C@H](C)[C@H](NC(=O)[C@H](CC(N)=O)NC(=O)[C@H](CC(N)=O)NC(=O)[C@@H](NC(=O)[C@@H]1CCCN1C(=O)[C@H](CCC(N)=O)NC(=O)[C@H](CC(N)=O)NC(=O)[C@H](CC(C)C)NC(=O)[C@@H](N)CCCNC(=N)N)C(C)C)C(=O)O [3102.0398] (H-RLNQPVNNI-OH) | 25
CC[C@H](C)[C@H](N)C(=O)N[C@@H](CO)C(=O)N[C@@H](Cc1c[nH]c2ccccc12)C(=O)N[C@@H](CCSC)C(=O)N[C@@H](CCSC)C(=O)N[C@@H](CCCCN)C(=O)N[C@@H](CC(C)C)C(=O)NCC(=O)N[C@H](C(=O)O)[C@@H](C)CC [3102.0399] (H-ISWMMKLGI-OH) | 42
CC[C@H](C)[C@H](NC(=O)[C@@H](NC(=O)[C@H](CC(N)=O)NC(=O)[C@@H](NC(=O)[C@@H](NC(=O)[C@H](C)NC(=O)[C@H](Cc1c[nH]c2ccccc12)NC(=O)[C@H](CC(C)C)NC(=O)[C@@H](N)[C@@H](C)O)[C@@H](C)CC)[C@@H](C)CC)[C@@H](C)O)C(=O)O [3102.0403] (H-TLWAIINTI-OH) | 1.5
CC[C@H](C)[C@H](NC(=O)[C@@H](NC(=O)[C@@H]1CCCN1C(=O)[C@@H](NC(=O)[C@H](Cc1ccccc1)NC(=O)[C@H](CC(N)=O)NC(=O)[C@H](CCSC)NC(=O)[C@@H](NC(=O)[C@@H](N)CO)C(C)C)[C@@H](C)CC)[C@@H](C)CC)C(=O)O [3102.0404] (H-SVMNFIPII-OH) | 0.6
CC[C@H](C)[C@H](N)C(=O)N[C@H](C(=O)N[C@@H](Cc1ccc(O)cc1)C(=O)N1CCC[C@H]1C(=O)N[C@@H](CCCCN)C(=O)N[C@@H](C)C(=O)N[C@@H](CC(C)C)C(=O)N[C@H](C(=O)N[C@@H](Cc1ccccc1)C(=O)O)C(C)C)[C@@H](C)O [3102.0405] (H-ITYPKALVF-OH) | 3
CC[C@H](C)[C@H](NC(=O)[C@H](CC(C)C)NC(=O)[C@H](CC(C)C)NC(=O)[C@H](CC(C)C)NC(=O)[C@H](CC(C)C)NC(=O)[C@H](CC(N)=O)NC(=O)CNC(=O)[C@H](CC(C)C)NC(=O)[C@@H](N)CCCCN)C(=O)O [3102.0406] (H-KLGNLLLLI-OH) | 0.72
CC[C@H](C)[C@H](NC(=O)[C@H](Cc1ccc(O)cc1)NC(=O)CNC(=O)[C@H](CO)NC(=O)[C@@H](NC(=O)[C@@H](N)CCCCN)[C@@H](C)O)C(=O)N[C@@H](CO)C(=O)N[C@@H](CO)C(=O)N[C@@H](Cc1ccccc1)C(=O)O [3102.0408] (H-KTSGYISSF-OH) | 0.5
CC[C@H](C)[C@H](NC(=O)[C@@H](NC(=O)[C@H](CC(C)C)NC(=O)[C@@H](NC(=O)[C@@H](NC(=O)[C@H](CO)NC(=O)[C@H](CC(C)C)NC(=O)[C@H](CCSC)NC(=O)[C@@H](N)[C@@H](C)O)[C@@H](C)CC)[C@@H](C)CC)C(C)C)C(=O)O [3102.0409] (H-TMLSIILVI-OH) | 16
CC(C)C[C@H](NC(=O)[C@@H](N)Cc1ccc(O)cc1)C(=O)N[C@@H](Cc1ccccc1)C(=O)N[C@@H](CO)C(=O)N[C@@H](CCC(N)=O)C(=O)N[C@@H](CC(N)=O)C(=O)N[C@@H](Cc1ccc(O)cc1)C(=O)N[C@@H](CO)C(=O)N[C@@H](Cc1ccccc1)C(=O)O [3102.0410] (H-YLFSQNYSF-OH) | 1.4
CC[C@H](C)[C@H](N)C(=O)N[C@@H](CC(C)C)C(=O)N[C@H](C(=O)N[C@H](C(=O)N[C@@H](Cc1ccccc1)C(=O)N[C@H](C(=O)N[C@H](C(=O)N[C@@H](C)C(=O)N[C@H](C(=O)O)[C@@H](C)CC)C(C)C)[C@@H](C)O)[C@@H](C)CC)C(C)C [3102.0411] (H-ILVIFTVAI-OH) | 15
CC[C@H](C)[C@H](NC(=O)[C@@H](N)C(C)C)C(=O)N[C@@H](CC(N)=O)C(=O)N[C@@H](Cc1ccc(O)cc1)C(=O)N[C@@H](Cc1ccccc1)C(=O)N[C@@H](CC(N)=O)C(=O)N[C@@H](CCCNC(=N)N)C(=O)N[C@@H](CCSC)C(=O)N[C@@H](Cc1ccccc1)C(=O)O [3102.0412] (H-VINYFNRMF-OH) | 4.3
CC[C@H](C)[C@H](NC(=O)[C@H](Cc1ccccc1)NC(=O)[C@H](CCCCN)NC(=O)[C@@H](NC(=O)[C@H](Cc1ccc(O)cc1)NC(=O)[C@H](CCC(N)=O)NC(=O)[C@@H](NC(=O)[C@@H](N)CC(C)C)C(C)C)[C@@H](C)CC)C(=O)N[C@@H](Cc1ccccc1)C(=O)O [3102.0413] (H-LVQYIKFIF-OH) | 20
CC[C@H](C)[C@H](NC(=O)[C@@H](N)CCCCN)C(=O)N[C@@H](CC(=O)O)C(=O)N[C@@H](CC(N)=O)C(=O)N[C@@H](Cc1ccc(O)cc1)C(=O)N[C@H](C(=O)N[C@H](C(=O)N[C@@H](CCCCN)C(=O)N[C@@H](Cc1ccccc1)C(=O)O)C(C)C)C(C)C [3102.0414] (H-KIDNYVVKF-OH) | 19
CC[C@H](C)[C@H](N)C(=O)N[C@@H](CO)C(=O)N[C@@H](CC(C)C)C(=O)N[C@@H](Cc1ccccc1)C(=O)N[C@@H](Cc1ccc(O)cc1)C(=O)N[C@H](C(=O)N[C@@H](Cc1ccccc1)C(=O)N[C@@H](C)C(=O)N[C@H](C(=O)O)[C@@H](C)CC)[C@@H](C)O [3102.0415] (H-ISLFYTFAI-OH) | 0.57
C[C@@H](O)[C@H](NC(=O)CN)C(=O)N[C@@H](Cc1c[nH]cn1)C(=O)N[C@@H](Cc1ccc(O)cc1)C(=O)N[C@@H](CCC(N)=O)C(=O)N[C@@H](CC(N)=O)C(=O)N[C@@H](Cc1c[nH]cn1)C(=O)NCC(=O)N[C@@H](Cc1ccccc1)C(=O)O [3102.0417] (H-GTHYQNHGF-OH) | 6
CC[C@H](C)[C@H](NC(=O)[C@@H](NC(=O)[C@@H](N)CO)[C@@H](C)CC)C(=O)N[C@@H](CC(N)=O)C(=O)N[C@@H](CO)C(=O)N[C@@H](CC(N)=O)C(=O)N[C@H](C(=O)N[C@H](C(=O)N[C@@H](Cc1c[nH]c2ccccc12)C(=O)O)[C@@H](C)O)C(C)C [3102.0419] (H-SIINSNVTW-OH) | 11
CC[C@H](C)[C@H](NC(=O)[C@H](CC(C)C)NC(=O)[C@H](Cc1ccccc1)NC(=O)[C@@H](NC(=O)[C@@H](N)CCCNC(=N)N)[C@@H](C)O)C(=O)N[C@@H](CC(=O)O)C(=O)N[C@@H](CC(C)C)C(=O)N[C@@H](C)C(=O)N[C@@H](Cc1ccccc1)C(=O)O [3102.0420] (H-RTFLIDLAF-OH) | 0.48
CC[C@H](C)[C@H](NC(=O)[C@H](CO)NC(=O)[C@H](CC(C)C)NC(=O)[C@@H](NC(=O)[C@H](Cc1ccccc1)NC(=O)[C@H](CC(N)=O)NC(=O)[C@H](CCC(=O)O)NC(=O)[C@@H](NC(=O)[C@@H](N)CCCNC(=N)N)[C@@H](C)O)C(C)C)C(=O)O [3102.0421] (H-RTENFVLSI-OH) | 1.6
CC[C@H](C)[C@H](N)C(=O)N[C@H](C(=O)N[C@@H](Cc1ccc(O)cc1)C(=O)N[C@@H](CCC(=O)O)C(=O)N[C@@H](CCCCN)C(=O)N[C@@H](CO)C(=O)N[C@@H](CC(N)=O)C(=O)N[C@@H](CC(N)=O)C(=O)N[C@H](C(=O)O)[C@@H](C)CC)[C@@H](C)O [3102.0422] (H-ITYEKSNNI-OH) | 18
CC[C@H](C)[C@H](NC(=O)[C@@H](NC(=O)[C@H](CCCNC(=N)N)NC(=O)[C@@H]1CCCN1C(=O)[C@H](Cc1ccccc1)NC(=O)[C@H](Cc1ccccc1)NC(=O)[C@H](CCSC)NC(=O)[C@@H](NC(=O)[C@H](C)N)[C@@H](C)CC)[C@@H](C)O)C(=O)O [3102.0423] (H-AIMFFPRTI-OH) | 1.1
CC(C)C[C@H](NC(=O)[C@@H](N)C(C)C)C(=O)N[C@@H](Cc1ccc(O)cc1)C(=O)N[C@@H](CC(N)=O)C(=O)N[C@@H](CC(N)=O)C(=O)N[C@H](C(=O)N[C@H](C(=O)N[C@@H](CCC(=O)O)C(=O)N[C@@H](Cc1ccccc1)C(=O)O)C(C)C)C(C)C [3102.0424] (H-VLYNNVVEF-OH) | 1.5
CC[C@H](C)[C@H](NC(=O)[C@@H](N)CO)C(=O)N[C@@H](Cc1ccc(O)cc1)C(=O)N[C@@H](CCCNC(=N)N)C(=O)N[C@@H](CCSC)C(=O)N[C@@H](CO)C(=O)N[C@@H](Cc1ccc(O)cc1)C(=O)N[C@@H](CCC(N)=O)C(=O)N[C@@H](Cc1ccccc1)C(=O)O [3102.0425] (H-SIYRMSYQF-OH) | 0.8
CSCC[C@H](NC(=O)[C@H](C)NC(=O)[C@@H](N)CC(C)C)C(=O)N[C@@H](CC(N)=O)C(=O)N[C@@H](CO)C(=O)N[C@H](C(=O)N[C@@H](Cc1ccccc1)C(=O)N[C@H](C(=O)N[C@@H](Cc1ccccc1)C(=O)O)[C@@H](C)O)C(C)C [3102.0426] (H-LAMNSVFTF-OH) | 16
CC[C@H](C)[C@H](NC(=O)[C@H](CC(C)C)NC(=O)[C@@H](NC(=O)[C@H](CC(N)=O)NC(=O)[C@H](CC(N)=O)NC(=O)[C@H](CO)NC(=O)[C@H](Cc1ccccc1)NC(=O)[C@H](CCSC)NC(=O)[C@@H](N)CCCCN)C(C)C)C(=O)O [3102.0427] (H-KMFSNNVLI-OH) | 1.1
CC[C@H](C)[C@H](NC(=O)[C@H](CC(C)C)NC(=O)[C@@H](N)CCCNC(=N)N)C(=O)N[C@@H](CC(N)=O)C(=O)N[C@@H](CC(N)=O)C(=O)N[C@@H](CCCNC(=N)N)C(=O)N[C@H](C(=O)N[C@@H](CC(C)C)C(=O)N[C@@H](Cc1ccccc1)C(=O)O)C(C)C [3102.0428] (H-RLINNRVLF-OH) | 5.7
